Experiments:
Type in all cases: cell-based
[1] = biological target: T1, hNaV1.6 R1617Q (Homo sapiens, UniProt Q9UQD0, R1617Q); assay: Automated patch-clamp, patient-identified variant in Expi293F cells
T1 construct: expression vector containing the full-length cDNA coding for specific human and mouse sodium channel α-subunit; expressed in transfected cells; host or cells: Expi293F (transient, tetracycline-induced, pcDNA4/TO)
Protocol: (§1) For studies of mutant channels, cDNA plasmids in pcDNA4/TO Mammalian Expression Vector were transiently transfected into Expi293F cells stably expressing human FHF2b and human SCN1B subunit (polyclonal) background using ExpiFectamine 293 Transfection Kits (Gibco,Thermo Fisher Scientific CAT #: A14524). Induction was achieved using Tetracycline (Sigma Aldrich). Transfected cells were used in automated patch-clamp experiments 24 hours postinduction.
(§2) Inorm(CPD)=(ICPD−Icontrol)/(ITTX−Icontrol).

[2] = biological target: T2, hNaV1.6 I1327V (Homo sapiens, UniProt Q9UQD0, I1327V); assay: as above
T2 construct: expression vector containing the full-length cDNA coding for specific human and mouse sodium channel α-subunit; expressed in transfected cells; host or cells: Expi293F (transient, tetracycline-induced, pcDNA4/TO)
T2 sequence (Q9UQD0 whole entry I1327V): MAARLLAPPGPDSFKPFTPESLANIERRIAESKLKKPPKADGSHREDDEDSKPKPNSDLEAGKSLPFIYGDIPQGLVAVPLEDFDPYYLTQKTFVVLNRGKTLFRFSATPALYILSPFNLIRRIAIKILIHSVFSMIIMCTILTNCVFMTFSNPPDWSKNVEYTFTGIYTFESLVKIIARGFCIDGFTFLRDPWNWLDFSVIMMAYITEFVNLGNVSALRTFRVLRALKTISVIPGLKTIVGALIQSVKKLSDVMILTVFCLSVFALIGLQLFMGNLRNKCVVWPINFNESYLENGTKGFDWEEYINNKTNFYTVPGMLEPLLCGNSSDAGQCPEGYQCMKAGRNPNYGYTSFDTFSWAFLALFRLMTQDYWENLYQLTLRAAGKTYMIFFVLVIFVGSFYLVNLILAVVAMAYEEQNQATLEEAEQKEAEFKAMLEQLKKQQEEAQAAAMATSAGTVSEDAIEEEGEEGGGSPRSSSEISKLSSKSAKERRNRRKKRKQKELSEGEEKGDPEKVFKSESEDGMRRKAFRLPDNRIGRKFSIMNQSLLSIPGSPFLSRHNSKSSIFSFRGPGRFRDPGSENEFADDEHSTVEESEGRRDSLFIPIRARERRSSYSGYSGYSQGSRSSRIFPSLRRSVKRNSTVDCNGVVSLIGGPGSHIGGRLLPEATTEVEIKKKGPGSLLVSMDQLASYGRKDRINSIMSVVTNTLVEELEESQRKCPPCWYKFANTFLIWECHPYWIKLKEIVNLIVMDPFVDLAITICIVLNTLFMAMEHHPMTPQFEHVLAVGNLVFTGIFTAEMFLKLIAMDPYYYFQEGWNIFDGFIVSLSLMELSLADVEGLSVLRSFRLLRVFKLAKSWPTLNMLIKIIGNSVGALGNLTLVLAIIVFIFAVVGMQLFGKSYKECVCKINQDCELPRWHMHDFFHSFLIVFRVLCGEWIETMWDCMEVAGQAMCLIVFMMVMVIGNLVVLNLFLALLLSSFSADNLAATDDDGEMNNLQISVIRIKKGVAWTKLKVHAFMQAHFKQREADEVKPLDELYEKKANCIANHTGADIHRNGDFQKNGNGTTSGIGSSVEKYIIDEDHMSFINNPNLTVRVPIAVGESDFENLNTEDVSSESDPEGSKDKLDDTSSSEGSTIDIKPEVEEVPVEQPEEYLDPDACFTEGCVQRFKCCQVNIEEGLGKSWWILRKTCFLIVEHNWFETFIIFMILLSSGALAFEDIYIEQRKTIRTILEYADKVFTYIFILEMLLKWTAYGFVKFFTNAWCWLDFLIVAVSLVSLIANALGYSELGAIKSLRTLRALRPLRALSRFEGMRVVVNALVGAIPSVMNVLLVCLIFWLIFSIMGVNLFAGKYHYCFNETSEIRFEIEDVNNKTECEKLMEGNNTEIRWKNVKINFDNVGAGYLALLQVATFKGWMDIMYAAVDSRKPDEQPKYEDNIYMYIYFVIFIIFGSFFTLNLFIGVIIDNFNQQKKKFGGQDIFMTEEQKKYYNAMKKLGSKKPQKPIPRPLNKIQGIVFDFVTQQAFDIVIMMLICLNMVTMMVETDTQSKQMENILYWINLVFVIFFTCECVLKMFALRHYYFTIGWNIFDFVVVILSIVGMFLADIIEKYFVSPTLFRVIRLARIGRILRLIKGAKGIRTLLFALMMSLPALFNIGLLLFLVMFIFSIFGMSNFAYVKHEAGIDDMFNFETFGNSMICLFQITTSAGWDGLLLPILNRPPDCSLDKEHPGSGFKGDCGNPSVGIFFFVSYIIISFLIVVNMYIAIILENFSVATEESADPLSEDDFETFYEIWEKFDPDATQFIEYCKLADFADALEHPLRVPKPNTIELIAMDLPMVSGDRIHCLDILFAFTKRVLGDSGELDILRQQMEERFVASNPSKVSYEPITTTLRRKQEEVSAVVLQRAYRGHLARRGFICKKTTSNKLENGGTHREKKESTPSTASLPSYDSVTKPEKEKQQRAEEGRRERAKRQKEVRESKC
Protocol: as §1, §2

[3] = biological target: T3, hNaV1.6 R850Q (Homo sapiens, UniProt Q9UQD0, R850Q); assay: as above
T3 construct: expression vector containing the full-length cDNA coding for specific human and mouse sodium channel α-subunit; expressed in transfected cells; host or cells: Expi293F (transient, tetracycline-induced, pcDNA4/TO)
T3 sequence (Q9UQD0 whole entry R850Q): as the sequence (Q9UQD0 whole entry I1327V) above, with R850Q, V1327I counted along it
Protocol: as §1, §2

[4] = biological target: T4, hNaV1.6 N1877S (Homo sapiens, UniProt Q9UQD0, N1877S); assay: as above
T4 construct: expression vector containing the full-length cDNA coding for specific human and mouse sodium channel α-subunit; expressed in transfected cells; host or cells: Expi293F (transient, tetracycline-induced, pcDNA4/TO)
T4 sequence (Q9UQD0 whole entry N1877S): as the sequence (Q9UQD0 whole entry I1327V) above, with V1327I, N1877S counted along it
Protocol: as §1, §2

[5] = biological target: T5, hNaV1.6 R1872W (Homo sapiens, UniProt Q9UQD0, R1872W); assay: as above
T5 construct: expression vector containing the full-length cDNA coding for specific human and mouse sodium channel α-subunit; expressed in transfected cells; host or cells: Expi293F (transient, tetracycline-induced, pcDNA4/TO)
T5 sequence (Q9UQD0 whole entry R1872W): as the sequence (Q9UQD0 whole entry I1327V) above, with V1327I, R1872W counted along it
Protocol: as §1, §2

[6] = biological target: T6, hNaV1.6 N1768D (Homo sapiens, UniProt Q9UQD0, N1768D); assay: as above
T6 construct: expression vector containing the full-length cDNA coding for specific human and mouse sodium channel α-subunit; expressed in transfected cells; host or cells: Expi293F (transient, tetracycline-induced, pcDNA4/TO)
T6 sequence (Q9UQD0 whole entry N1768D): as the sequence (Q9UQD0 whole entry I1327V) above, with V1327I, N1768D counted along it
Protocol: as §1, §2

[7] = biological target: T7, hNaV1.6 T767I (Homo sapiens, UniProt Q9UQD0, T767I); assay: as above
T7 construct: expression vector containing the full-length cDNA coding for specific human and mouse sodium channel α-subunit; expressed in transfected cells; host or cells: Expi293F (transient, tetracycline-induced, pcDNA4/TO)
T7 sequence (Q9UQD0 whole entry T767I): as the sequence (Q9UQD0 whole entry I1327V) above, with T767I, V1327I counted along it
Protocol: as §1, §2

[8] = biological target: T8, hNaV1.3 (Homo sapiens, UniProt Q9NY46); assay: Qube 384 automated patch-clamp, inactivated-state inhibition
T8 construct: expression vector containing the full-length cDNA coding for specific human and mouse sodium channel α-subunit; expressed in transfected cells
T8 sequence (Q9NY46 whole entry): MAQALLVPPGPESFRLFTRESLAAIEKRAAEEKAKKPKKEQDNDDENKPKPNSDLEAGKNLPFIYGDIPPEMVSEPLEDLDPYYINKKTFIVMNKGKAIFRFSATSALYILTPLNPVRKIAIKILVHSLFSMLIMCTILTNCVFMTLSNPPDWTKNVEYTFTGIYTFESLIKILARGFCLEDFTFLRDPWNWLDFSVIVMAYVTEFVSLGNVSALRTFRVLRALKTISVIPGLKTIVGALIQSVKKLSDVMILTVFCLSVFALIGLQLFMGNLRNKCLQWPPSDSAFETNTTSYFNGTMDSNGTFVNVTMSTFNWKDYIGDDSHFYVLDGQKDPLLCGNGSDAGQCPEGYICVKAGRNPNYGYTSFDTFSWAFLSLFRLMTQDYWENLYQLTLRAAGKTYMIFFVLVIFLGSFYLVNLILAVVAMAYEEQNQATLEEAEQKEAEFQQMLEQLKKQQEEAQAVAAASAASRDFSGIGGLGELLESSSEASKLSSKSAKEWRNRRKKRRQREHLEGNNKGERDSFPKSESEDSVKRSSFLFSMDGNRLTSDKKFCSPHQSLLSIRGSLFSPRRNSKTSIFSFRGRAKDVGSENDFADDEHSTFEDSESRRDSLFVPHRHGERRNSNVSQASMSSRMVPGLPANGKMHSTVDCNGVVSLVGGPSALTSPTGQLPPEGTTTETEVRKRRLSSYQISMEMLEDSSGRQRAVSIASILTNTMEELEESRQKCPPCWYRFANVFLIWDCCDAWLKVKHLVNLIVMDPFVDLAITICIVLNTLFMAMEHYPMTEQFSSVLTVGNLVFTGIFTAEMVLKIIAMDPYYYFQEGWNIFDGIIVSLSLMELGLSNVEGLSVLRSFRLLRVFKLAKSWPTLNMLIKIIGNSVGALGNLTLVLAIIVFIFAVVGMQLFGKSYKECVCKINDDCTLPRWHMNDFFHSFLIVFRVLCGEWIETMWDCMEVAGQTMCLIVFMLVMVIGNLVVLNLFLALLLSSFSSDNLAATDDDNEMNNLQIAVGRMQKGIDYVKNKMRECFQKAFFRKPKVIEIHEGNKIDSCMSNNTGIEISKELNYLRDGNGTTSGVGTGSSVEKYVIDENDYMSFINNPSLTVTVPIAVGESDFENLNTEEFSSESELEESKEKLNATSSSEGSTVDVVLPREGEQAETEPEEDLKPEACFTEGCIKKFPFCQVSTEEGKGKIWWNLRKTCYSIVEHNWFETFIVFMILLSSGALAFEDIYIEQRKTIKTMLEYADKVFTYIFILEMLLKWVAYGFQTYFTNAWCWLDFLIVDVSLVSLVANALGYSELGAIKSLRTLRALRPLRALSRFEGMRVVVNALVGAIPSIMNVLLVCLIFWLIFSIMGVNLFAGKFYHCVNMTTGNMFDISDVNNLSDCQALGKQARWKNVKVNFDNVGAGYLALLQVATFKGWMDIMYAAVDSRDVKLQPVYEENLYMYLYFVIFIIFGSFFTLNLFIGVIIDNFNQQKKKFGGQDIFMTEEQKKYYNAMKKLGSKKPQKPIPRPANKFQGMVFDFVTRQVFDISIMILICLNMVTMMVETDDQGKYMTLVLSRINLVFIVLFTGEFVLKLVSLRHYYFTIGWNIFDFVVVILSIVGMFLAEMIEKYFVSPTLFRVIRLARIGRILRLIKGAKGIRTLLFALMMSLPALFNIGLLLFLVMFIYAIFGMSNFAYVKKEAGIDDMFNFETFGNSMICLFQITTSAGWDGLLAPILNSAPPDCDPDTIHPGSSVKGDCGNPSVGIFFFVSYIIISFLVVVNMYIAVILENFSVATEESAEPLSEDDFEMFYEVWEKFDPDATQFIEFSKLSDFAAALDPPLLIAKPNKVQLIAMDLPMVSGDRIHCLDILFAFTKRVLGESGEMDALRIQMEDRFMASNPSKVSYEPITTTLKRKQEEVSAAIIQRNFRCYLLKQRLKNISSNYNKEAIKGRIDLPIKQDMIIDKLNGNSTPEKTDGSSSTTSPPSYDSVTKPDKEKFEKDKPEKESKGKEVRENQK
Source text: All of the cell lines tested negative for mycoplasma.
as §2

T1 sequence (Q9UQD0 whole entry R1617Q): as the sequence (Q9UQD0 whole entry I1327V) above, with V1327I, R1617Q counted along it

Cc1cc(S(=O)(=O)Nc2cscn2)c(F)cc1N(C)[C@H]1CCN(Cc2ccccc2)C1 [NBI-921352]
h1.6-R1617Q 145756, Mean ([1]; -5 LogM): 0.85 | h1.6-R1617Q 145756, Mean ([1]; -6 LogM): 0.64 | h1.6-R1617Q 145756, Mean ([1]; -7 LogM): 0.24 | h1.6-R1617Q 145756, Mean ([1]; -8 LogM): 0.07 | IC50 [2]: 0.035 µM | h1.6-I1327V 145756, Mean ([2]; -5 LogM): 0.91 | h1.6-I1327V 145756, Mean ([2]; -5.47716 LogM): 0.88 | h1.6-I1327V 145756, Mean ([2]; -5.95429 LogM): 0.9 | h1.6-I1327V 145756, Mean ([2]; -6.4318 LogM): 0.82 | h1.6-I1327V 145756, Mean ([2]; -6.91009 LogM): 0.67 | h1.6-I1327V 145756, Mean ([2]; -7.38722 LogM): 0.56 | h1.6-I1327V 145756, Mean ([2]; -7.85387 LogM): 0.29 | h1.6-I1327V 145756, Mean ([2]; -8.33 LogM): 0.13 | IC50 [3]: 0.021 µM | h1.6-R850Q 145756, Mean ([3]; -5 LogM): 0.91 | h1.6-R850Q 145756, Mean ([3]; -5.47716 LogM): 0.88 | h1.6-R850Q 145756, Mean ([3]; -5.95429 LogM): 0.86 | h1.6-R850Q 145756, Mean ([3]; -6.4318 LogM): 0.83 | h1.6-R850Q 145756, Mean ([3]; -6.91009 LogM): 0.79 | h1.6-R850Q 145756, Mean ([3]; -7.38722 LogM): 0.58 | h1.6-R850Q 145756, Mean ([3]; -7.85387 LogM): 0.43 | h1.6-R850Q 145756, Mean ([3]; -8.33 LogM): 0.13 | h1.6-N1877S 145756 norm, Mean ([4]; -5 LogM): 0.94 | h1.6-N1877S 145756 norm, Mean ([4]; -5.47716 LogM): 0.93 | h1.6-N1877S 145756 norm, Mean ([4]; -5.95429 LogM): 0.88 | h1.6-N1877S 145756 norm, Mean ([4]; -6.4318 LogM): 0.84 | h1.6-N1877S 145756 norm, Mean ([4]; -6.91009 LogM): 0.68 | h1.6-N1877S 145756 norm, Mean ([4]; -7.38722 LogM): 0.53 | h1.6-N1877S 145756 norm, Mean ([4]; -7.85387 LogM): 0.27 | h1.6-N1877S 145756 norm, Mean ([4]; -8.33 LogM): 0.1 | h1.6-R1872W 145756, Mean ([5]; -5 LogM): 0.9 | h1.6-R1872W 145756, Mean ([5]; -6 LogM): 0.87 | h1.6-R1872W 145756, Mean ([5]; -7 LogM): 0.55 | h1.6-R1872W 145756, Mean ([5]; -8 LogM): 0.13 | h1.6-N1768D 145756 norm, Mean ([6]; -5 LogM): 0.9 | h1.6-N1768D 145756 norm, Mean ([6]; -5.47716 LogM): 0.88 | h1.6-N1768D 145756 norm, Mean ([6]; -5.95429 LogM): 0.82 | h1.6-N1768D 145756 norm, Mean ([6]; -6.4318 LogM): 0.74 | h1.6-N1768D 145756 norm, Mean ([6]; -6.91009 LogM): 0.62 | h1.6-N1768D 145756 norm, Mean ([6]; -7.38722 LogM): 0.46 | h1.6-N1768D 145756 norm, Mean ([6]; -7.85387 LogM): 0.18 | h1.6-N1768D 145756 norm, Mean ([6]; -8.33 LogM): 0.03 | IC50 [7]: 0.031 µM | h1.6-T767I 145756, Mean ([7]; -5 LogM): 0.91 | h1.6-T767I 145756, Mean ([7]; -5.47716 LogM): 0.92 | h1.6-T767I 145756, Mean ([7]; -5.95429 LogM): 0.86 | h1.6-T767I 145756, Mean ([7]; -6.4318 LogM): 0.86 | h1.6-T767I 145756, Mean ([7]; -6.91009 LogM): 0.75 | h1.6-T767I 145756, Mean ([7]; -7.38722 LogM): 0.58 | h1.6-T767I 145756, Mean ([7]; -7.85387 LogM): 0.19 | h1.6-T767I 145756, Mean ([7]; -8.33 LogM): 0.1 | inhibition at 30 µM ([8]; 30 µM, NaV1.3, read-out: inhibition at the highest concentration tested): < 50% | hNaV1.3 current (352)/(Vehicle), mean ([8]; -4.52288 Log M): 0.17 | hNaV1.3 current (352)/(Vehicle), mean ([8]; -5 Log M): 0.03 | hNaV1.3 current (352)/(Vehicle), mean ([8]; -5.47716 Log M): 0.01

From publication PMC8903829 (eLife, 2022)
